Measurements published in PMC10854447 (Journal of Enzyme Inhibition and Medicinal Chemistry, 2024).

Key:
[1] = tested on: breast cancer (MCF-7) cell line; test: cells; conditions: Homo sapiens, MCF7, read-out: Antiproliferative activity IC50 ± SEM, MCF-7
[2] = tested on: pancreatic cancer (Panc-1) cell line; test: cells; conditions: Homo sapiens, PANC-1, read-out: Antiproliferative activity IC50 ± SEM, Panc-1
[3] = tested on: lung cancer (A-549) cell line; test: cells; conditions: Homo sapiens, A549, read-out: Antiproliferative activity IC50 ± SEM, A-549
[4] = tested on: colon cancer (HT-29) cell line; test: cells; conditions: Homo sapiens, HT-29, read-out: Antiproliferative activity IC50 ± SEM, HT-29
[5] = Cell viability assay; format: cell-based; conditions: human, MCF-10A normal mammary gland epithelial cells
[6] = tested on: four cancer cell lines (A-549, MCF-7, Panc-1, HT-29); test: Antiproliferative assay, average over the four cancer cell lines; conditions: for fold less potent than the reference Erlotinib (GI50): GI50 ratio vs Erlotinib
[7] = target: EGFR (Homo sapiens, UniProt P00533); test: EGFR inhibitory assay; format: biochemical
[8] = target: VEGFR-2 (Homo sapiens, UniProt P35968); test: VEGFR-2 inhibitory assay; format: biochemical; conditions: VEGFR-2 inhibition IC50 ± SEM
[9] = tested on: Caspase-8; test: Caspase-8 level assay; format: cell-based, human; conditions: A-594 cancer cell line; for Caspase-8 Fold change: vs untreated control
[10] = tested on: Caspase-3; test: Caspase-3 activation assay; format: cell-based, human; conditions: A-594 cancer cell line; for Caspase-3 Fold change: vs untreated control cells
[11] = tested on: Bcl-2; test: Bcl-2 level assay; format: cell-based, human; conditions: A-594 cancer cell line; for Bcl-2 Fold reduction: vs untreated control
[12] = tested on: Bax; test: Bax level assay; format: cell-based, human; conditions: A-594 cancer cell line; for Bax Fold change: vs untreated control
[13] = tested on: panel of four cancer cell lines; conditions: read-out: GI50 against four cancer cell lines; cited from earlier work

VEGFR-2, sequence (P35968 20-1356): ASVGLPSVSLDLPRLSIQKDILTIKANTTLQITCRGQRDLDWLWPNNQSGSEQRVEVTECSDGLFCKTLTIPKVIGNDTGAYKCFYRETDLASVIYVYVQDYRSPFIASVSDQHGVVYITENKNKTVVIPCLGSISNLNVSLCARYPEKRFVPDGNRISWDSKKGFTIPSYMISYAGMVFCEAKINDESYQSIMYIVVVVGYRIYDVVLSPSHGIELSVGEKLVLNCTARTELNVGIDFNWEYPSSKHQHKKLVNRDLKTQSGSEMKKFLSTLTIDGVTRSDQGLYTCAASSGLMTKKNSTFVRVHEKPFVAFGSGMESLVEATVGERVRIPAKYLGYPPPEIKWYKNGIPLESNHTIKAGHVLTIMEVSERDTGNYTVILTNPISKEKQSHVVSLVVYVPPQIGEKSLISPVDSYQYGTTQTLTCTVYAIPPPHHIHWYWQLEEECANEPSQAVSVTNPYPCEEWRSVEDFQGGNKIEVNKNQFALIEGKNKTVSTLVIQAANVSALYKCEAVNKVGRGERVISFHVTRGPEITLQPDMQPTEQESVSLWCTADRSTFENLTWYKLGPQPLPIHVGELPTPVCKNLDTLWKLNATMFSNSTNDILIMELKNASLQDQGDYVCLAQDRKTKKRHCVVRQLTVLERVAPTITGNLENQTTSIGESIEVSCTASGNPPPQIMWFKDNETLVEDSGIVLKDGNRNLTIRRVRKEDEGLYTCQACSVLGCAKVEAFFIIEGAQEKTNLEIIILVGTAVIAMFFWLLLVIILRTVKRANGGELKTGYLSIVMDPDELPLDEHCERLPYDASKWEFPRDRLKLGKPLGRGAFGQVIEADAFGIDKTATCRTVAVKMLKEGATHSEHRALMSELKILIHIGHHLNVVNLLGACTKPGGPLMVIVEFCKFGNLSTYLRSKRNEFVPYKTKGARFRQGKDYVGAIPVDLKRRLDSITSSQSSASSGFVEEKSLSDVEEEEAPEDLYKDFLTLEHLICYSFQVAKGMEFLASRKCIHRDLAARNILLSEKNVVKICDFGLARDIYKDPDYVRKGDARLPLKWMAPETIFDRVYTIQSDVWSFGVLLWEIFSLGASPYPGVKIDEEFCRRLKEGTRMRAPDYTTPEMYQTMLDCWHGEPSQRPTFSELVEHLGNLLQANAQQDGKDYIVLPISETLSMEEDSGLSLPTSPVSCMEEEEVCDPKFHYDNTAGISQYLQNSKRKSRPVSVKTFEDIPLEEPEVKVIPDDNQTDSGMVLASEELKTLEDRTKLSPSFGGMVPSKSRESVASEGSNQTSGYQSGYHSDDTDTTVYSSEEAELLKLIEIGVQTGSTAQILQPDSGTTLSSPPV
EGFR, sequence (P00533 669-1210): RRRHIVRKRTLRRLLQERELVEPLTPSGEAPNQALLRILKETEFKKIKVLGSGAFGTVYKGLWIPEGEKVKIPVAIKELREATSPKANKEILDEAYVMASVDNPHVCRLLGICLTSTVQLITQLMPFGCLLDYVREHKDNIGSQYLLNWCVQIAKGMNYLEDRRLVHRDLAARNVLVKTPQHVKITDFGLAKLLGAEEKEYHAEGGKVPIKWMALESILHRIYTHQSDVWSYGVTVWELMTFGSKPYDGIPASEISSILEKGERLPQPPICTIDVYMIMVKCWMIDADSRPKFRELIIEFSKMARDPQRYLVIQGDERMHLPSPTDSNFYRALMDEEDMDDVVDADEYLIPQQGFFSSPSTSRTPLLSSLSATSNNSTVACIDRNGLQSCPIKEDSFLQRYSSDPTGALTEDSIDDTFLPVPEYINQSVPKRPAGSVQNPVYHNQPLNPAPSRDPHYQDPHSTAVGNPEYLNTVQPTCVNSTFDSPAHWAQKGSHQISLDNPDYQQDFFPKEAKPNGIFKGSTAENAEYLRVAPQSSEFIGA

c1ccc(-c2cn(Cc3nc(-c4ccccc4)no3)nn2)cc1 [Compound 7a, 3-Phenyl-5-[(4-phenyl-1H-1,2,3-triazol-1-yl)methyl]-1,2,4-oxadiazole]
IC50 [1]: 0.098 ± 0.009 µM | IC50 [2]: 0.096 ± 0.009 µM | IC50 [3]: 0.094 ± 0.009 µM | IC50 [4]: 0.096 ± 0.009 µM | viability at 4 days, 50 µM [5]: 90% | fold less potent than the reference Erlotinib (GI50) [6]: 3 fold

Fc1ccc(-c2noc(Cn3cc(-c4ccccc4)nn3)n2)cc1 [Compound 7b, 3-(4-Fluorophenyl)-5-[(4-phenyl-1H-1,2,3-triazol-1-yl)methyl]-1,2,4-oxadiazole]
IC50 [1]: 0.106 ± 0.01 µM | IC50 [2]: 0.104 ± 0.01 µM | IC50 [3]: 0.102 ± 0.01 µM | IC50 [4]: 0.104 ± 0.01 µM | viability at 4 days, 50 µM [5]: 91% | fold less active than the 3-halo-substituted derivatives 7i and 7h (GI50) ([6]; GI50 ratio vs 7i and 7h): 2.5 fold

Clc1ccc(-c2noc(Cn3cc(-c4ccccc4)nn3)n2)cc1 [Compound 7c, 3-(4-Chlorophenyl)-5-[(4-phenyl-1H-1,2,3-triazol-1-yl)methyl]-1,2,4-oxadiazole]
IC50 [1]: 0.094 ± 0.009 µM | IC50 [2]: 0.09 ± 0.009 µM | IC50 [3]: 0.087 ± 0.008 µM | IC50 [4]: 0.092 ± 0.009 µM | viability at 4 days, 50 µM [5]: 89%

Brc1ccc(-c2noc(Cn3cc(-c4ccccc4)nn3)n2)cc1 [Compound 7d, 3-(4-Bromophenyl)-5-[(4-phenyl-1H-1,2,3-triazol-1-yl)methyl]-1,2,4-oxadiazole]
IC50 [1]: 0.084 ± 0.008 µM | IC50 [2]: 0.08 ± 0.008 µM | IC50 [3]: 0.08 ± 0.008 µM | IC50 [4]: 0.082 ± 0.008 µM | viability at 4 days, 50 µM [5]: 88%

Cc1ccc(-c2noc(Cn3cc(-c4ccccc4)nn3)n2)cc1 [Compound 7e, 3-(4-Methylphenyl)-5-[(4-phenyl-1H-1,2,3-triazol-1-yl)methyl]-1,2,4-oxadiazole]
IC50 [1]: 0.102 ± 0.009 µM | IC50 [2]: 0.1 ± 0.01 µM | IC50 [3]: 0.098 ± 0.009 µM | IC50 [4]: 0.102 ± 0.01 µM | viability at 4 days, 50 µM [5]: 91% | fold less potent than the reference Erlotinib (GI50) [6]: 3 fold

COc1ccc(-c2noc(Cn3cc(-c4ccccc4)nn3)n2)cc1 [Compound 7f, 3-(4-Methoxyphenyl)-5-[(4-phenyl-1H-1,2,3-triazol-1-yl)methyl]-1,2,4-oxadiazole]
IC50 [1]: 0.051 ± 0.005 µM | IC50 [2]: 0.048 ± 0.004 µM | IC50 [3]: 0.048 ± 0.004 µM | IC50 [4]: 0.046 ± 0.004 µM | viability at 4 days, 50 µM [5]: 90%

FC(F)(F)c1ccc(-c2noc(Cn3cc(-c4ccccc4)nn3)n2)cc1 [Compound 7g, 3-(4-Trifluoromethylphenyl)-5-[(4-phenyl-1H-1,2,3-triazol-1-yl)methyl]-1,2,4-oxadiazole]
IC50 [1]: 0.068 ± 0.006 µM | IC50 [2]: 0.068 ± 0.006 µM | IC50 [3]: 0.066 ± 0.006 µM | IC50 [4]: 0.066 ± 0.006 µM | viability at 4 days, 50 µM [5]: 87%

Clc1cccc(-c2noc(Cn3cc(-c4ccccc4)nn3)n2)c1 [Compound 7h, 3-(3-Chlorophenyl)-5-[(4-phenyl-1H-1,2,3-triazol-1-yl)methyl]-1,2,4-oxadiazole]
IC50 [1]: 0.044 ± 0.004 µM | IC50 [2]: 0.04 ± 0.004 µM | IC50 [7]: 0.105 ± 0.01 µM | IC50 [3]: 0.04 ± 0.004 µM | IC50 [8]: 0.0069 ± 7e-05 µM | IC50 [4]: 0.042 ± 0.004 µM | viability at 4 days, 50 µM [5]: 90%

Brc1cccc(-c2noc(Cn3cc(-c4ccccc4)nn3)n2)c1 [Compound 7i, 3-(3-Bromophenyl)-5-[(4-phenyl-1H-1,2,3-triazol-1-yl)methyl]-1,2,4-oxadiazole]
IC50 [1]: 0.039 ± 0.003 µM | IC50 [2]: 0.037 ± 0.003 µM | IC50 [7]: 0.097 ± 0.009 µM | IC50 [3]: 0.036 ± 0.003 µM | IC50 [8]: 0.0055 ± 5e-05 µM | IC50 [4]: 0.037 ± 0.003 µM | viability at 4 days, 50 µM [5]: 89%

Clc1ccc(-c2noc(Cn3cc(-c4ccccc4)nn3)n2)c(Cl)c1 [Compound 7j, 3-(2,4-Dichlorophenyl)-5-[(4-phenyl-1H-1,2,3-triazol-1-yl)methyl]-1,2,4-oxadiazole]
Caspase-8 Conc [9]: 2.00 ng/mL | Caspase-8 Fold change [9]: 22 | Caspase-3 Conc [10]: 460 ± 4 pg/mL | Caspase-3 Fold change [10]: 7.0 | IC50 [1]: 0.036 ± 0.003 µM | Bcl-2 Conc [11]: 0.95 ng/mL | Bcl-2 Fold reduction [11]: 5 | IC50 [2]: 0.034 ± 0.003 µM | IC50 [7]: 0.089 ± 0.008 µM | IC50 [3]: 0.033 ± 0.003 µM | Bax Conc [12]: 291 pg/mL | Bax Fold change [12]: 32 | IC50 [8]: 0.0047 ± 4e-05 µM | IC50 [4]: 0.036 ± 0.003 µM | viability at 4 days, 50 µM [5]: 91%

COc1ccc(-c2noc(Cn3cc(-c4ccccc4)nn3)n2)cc1OC [Compound 7k, 3-(3,4-Dimethoxyphenyl)-5-[(4-phenyl-1H-1,2,3-triazol-1-yl)methyl]-1,2,4-oxadiazole]
Caspase-8 Conc [9]: 2.30 ng/mL | Caspase-8 Fold change [9]: 25 | Caspase-3 Conc [10]: 530 ± 5 pg/mL | Caspase-3 Fold change [10]: 8 | IC50 [1]: 0.035 ± 0.003 µM | Bcl-2 Conc [11]: 0.80 ng/mL | Bcl-2 Fold reduction [11]: 6 | IC50 [2]: 0.032 ± 0.003 µM | IC50 [7]: 0.082 ± 0.007 µM | IC50 [3]: 0.03 ± 0.003 µM | Bax Conc [12]: 310 pg/mL | Bax Fold change [12]: 34 | IC50 [8]: 0.0038 ± 3e-05 µM | IC50 [4]: 0.032 ± 0.003 µM | viability at 4 days, 50 µM [5]: 89%

COc1cc(-c2noc(Cn3cc(-c4ccccc4)nn3)n2)cc(OC)c1OC [Compound 7l, 3-(3,4,5-Trimethoxyphenyl)-5-[(4-phenyl-1H-1,2,3-triazol-1-yl)methyl]-1,2,4-oxadiazole]
Caspase-8 Conc [9]: 2.55 ng/mL | Caspase-8 Fold change [9]: 28 | Caspase-3 Conc [10]: 587 ± 5 pg/mL | Caspase-3 Fold change [10]: 9 | IC50 [1]: 0.03 ± 0.003 µM | Bcl-2 Conc [11]: 0.60 ng/mL | Bcl-2 Fold reduction [11]: 8 | IC50 [2]: 0.028 ± 0.002 µM | IC50 [3]: 0.026 ± 0.002 µM | Bax Conc [12]: 362 pg/mL | Bax Fold change [12]: 40 | IC50 [8]: 0.0047 µM | IC50 [4]: 0.028 ± 0.002 µM | viability at 4 days, 50 µM [5]: 88%

c1ccc(-c2cn(Cc3nc(-c4cccc5ccccc45)no3)nn2)cc1 [Compound 7m, 3-(Naphthalen-1-yl)-5-[(4-phenyl-1H-1,2,3-triazol-1-yl)methyl]-1,2,4-oxadiazole]
IC50 [1]: 0.048 ± 0.004 µM | IC50 [2]: 0.046 ± 0.004 µM | IC50 [3]: 0.042 ± 0.004 µM | IC50 [4]: 0.044 ± 0.004 µM | viability at 4 days, 50 µM [5]: 87% | fold less potent than the reference Erlotinib (GI50) [6]: 1.4 fold

c1ccc(-c2cn(Cc3nc(-c4ccc5ccccc5c4)no3)nn2)cc1 [Compound 7n, 3-(Naphthalen-2-yl)-5-[(4-phenyl-1H-1,2,3-triazol-1-yl)methyl]-1,2,4-oxadiazole]
IC50 [1]: 0.074 ± 0.007 µM | IC50 [2]: 0.07 ± 0.007 µM | IC50 [3]: 0.068 ± 0.006 µM | IC50 [4]: 0.072 ± 0.007 µM | viability at 4 days, 50 µM [5]: 89% | fold less potent than the 1-naphthyl derivative 7m (GI50) ([6]; GI50 ratio vs 7m): 1.7 fold | fold less potent than the reference Erlotinib (GI50) [6]: 2.4 fold

c1ccc(-c2cn(Cc3nc(-c4ccc5c(c4)OCO5)no3)nn2)cc1 [Compound 7o, 3-(2H-1,3-Benzodioxol-5-yl)-5-[(4-phenyl-1H-1,2,3-triazol-1-yl)methyl]-1,2,4-oxadiazole]
IC50 [1]: 0.08 ± 0.008 µM | IC50 [2]: 0.078 ± 0.007 µM | IC50 [3]: 0.074 ± 0.007 µM | IC50 [4]: 0.076 ± 0.007 µM | viability at 4 days, 50 µM [5]: 91%

C#Cc1cccc(Nc2ncnc3cc(OCCOC)c(OCCOC)cc23)c1 [Erlotinib, reference compound]
GI50 [13]: 0.033 µM | IC50 [1]: 0.04 ± 0.003 µM | IC50 [2]: 0.03 ± 0.003 µM | IC50 [3]: 0.03 ± 0.003 µM | IC50 [4]: 0.03 ± 0.003 µM

CN[C@@H]1C[C@H]2O[C@@](C)([C@@H]1OC)n1c3ccccc3c3c4c(c5c6ccccc6n2c5c31)C(=O)NC4 [Staurosporine, reference compound]
Caspase-3 Conc [10]: 465 ± 4 pg/mL | Bcl-2 Conc [11]: 1.00 ng/mL | Bax Conc [12]: 288 pg/mL
